{
  "source": "paper PMC10281575",
  "about": "“PfCRT mutations conferring piperaquine resistance in falciparum malaria shape the kinetics of quinoline drug binding and transport” (PLOS Pathogens, 2023)",
  "target": "T1, PfCRT^Dd2_F145I (Plasmodium falciparum, UniProt Q8IBZ9, A220S/F145I/I356T/K76T/M74I/N326S/N75E/Q271E/R371I)",
  "T1 construct": "expressed in transfected cells; host or cells: Xenopus laevis oocytes injected with in vitro transcribed RNA (pSP64T)",
  "T1 sequence (Q8IBZ9 1-424 M74I/N75E/K76T/F145I/A220S/Q271E/N326S/I356T/R371I)": "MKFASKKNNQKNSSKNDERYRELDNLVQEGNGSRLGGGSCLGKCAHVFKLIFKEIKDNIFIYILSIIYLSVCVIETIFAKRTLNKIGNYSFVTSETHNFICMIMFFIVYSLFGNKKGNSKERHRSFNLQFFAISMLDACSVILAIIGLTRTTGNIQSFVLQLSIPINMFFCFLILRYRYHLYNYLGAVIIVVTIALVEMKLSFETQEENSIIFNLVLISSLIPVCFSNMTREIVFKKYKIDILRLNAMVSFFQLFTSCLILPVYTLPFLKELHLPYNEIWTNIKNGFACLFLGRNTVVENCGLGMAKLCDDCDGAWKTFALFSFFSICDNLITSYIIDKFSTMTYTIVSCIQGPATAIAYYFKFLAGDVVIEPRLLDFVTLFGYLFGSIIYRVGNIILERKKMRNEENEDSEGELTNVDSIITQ",
  "experiment": "Competition kinetics of drug transport (radiolabeled substrate plus cold inhibitor), PfCRT^Dd2_F145I-expressing oocytes",
  "assay_type": "cell-based",
  "conditions": "for Vmax, maximal velocity of drug transport: global fit; for β, partiality factor: factor on transport of the labeled drug by the other drug",
  "protocol": "To further characterize the kinetic relationship between CQ and PPQ, we performed a series of competition reactions. To this end, water-injected oocytes and PfCRT-expressing oocytes were incubated in medium containing one of seven concentrations of radio-labeled CQ and one of six concentrations of cold PPQ for 60 min before the amount of radio-labeled CQ uptake was determined. The rate of PfCRT-mediated CQ uptake was calculated for each condition by subtracting the corresponding value obtained for water-injected oocytes from those of PfCRT-expressing oocytes. The results were analyzed as a function of the CQ concentration (Fig 4A) and 16 different models of substrate competition were globally fit to the data by the least-squares method, using Python. The models were ranked, according to their Akaike information criterion difference (ΔAICC) and their Akaike weight (Fig 4B), with the most plausible model being the one with the lowest AICC (ΔAICC = 0) and the highest Akaike weight.\nA complementary set of experiments was undertaken to investigate the kinetic mechanism by which PfCRT^Dd2_F145I accepts CQ and PPQ (Fig 6). […] These included a global fit of the substrate competition data to the 16 kinetic models (Fig 6), analysis of the secondary plots (Vmax,app and Vmax,app/KM,app as a function of the inhibitor concentration) (Fig 7A), a fractional velocity plot analysis (Fig 7B) and a comparison of the experimental data with the modelled data using the noncompetitive inhibition equation (Fig 7C to 7F). […] The fractional velocity plot illustrated the partial character of the noncompetitive inhibition mechanism by yielding a partiality factor β^CQ = 0.31 ± 0.04, by which PPQ reduces the transport velocity of CQ (Fig 7B). […] A 3D model of the kinetics between PfCRT^Dd2_F145I, CQ and PPQ, and analyses of the residuals as a function of substrate and inhibitor concentrations confirmed that the model was also an appropriate explanation for the mutant transporter (Fig 7C to 7F).\nDrug transport assays were performed as previously described. Briefly, measurements of radiolabeled drug uptake were made over 1 h, unless otherwise specified. […] Where specified, one or more unlabeled drugs were also present at the indicated concentrations. The direction of drug transport in the assays is from the extracellular medium (pH 6) into the oocyte cytosol (pH 7.2), which corresponds to the efflux of CQ or PPQ from the acidic digestive vacuole (pH 5.2) into the parasite cytosol (pH 7.2). The uptake assays were terminated by removing the oocytes from the reaction medium and washing them three times with 2 mL of ice-cold ND96 buffer. Each oocyte was transferred to a separate scintillation vial and lysed by the addition of 200 μL of a 5% SDS solution. The radioactivity in the sample was measured using a liquid scintillation analyser Tri-Carb 4910 TR (PerkinElmer). Water-injected oocytes were analyzed in parallel as a negative control. The buffer from each condition was measured in duplicate in parallel to each experiment to transform counts per minute into pmol of drug. Drug uptake attributable to PfCRT was determined by subtracting the background uptake from water-injected oocytes from that of PfCRT-expressing oocytes. In all cases, at least three independent experiments were performed on oocytes from different frogs, and for each condition in an experiment, measurements were made from 10 oocytes per treatment.\nThe following equations were adopted from Segel (1993), and the reader is referred to that text for the assumptions made in the author’s approach in the derivation of each equation [31]. The concentration of substrate is denoted as [S1] and the concentration of the inhibiting substrate is denoted as [S2]. KS1 and KS2 are the dissociation constants for the respective substrate-protein complexes.\nAnalyses of the kinetic data were performed using SigmaPlot version 13.0 and Python. […]",
  "note": "Several values for one entry are separate records, joined by “and”; a condition that tells them apart may be missing. Equal values may be shown once. Read-outs that look alike come from different tables or passages of the source.",
  "data": [
    {"smiles": "Clc1ccc2c(N3CCN(CCCN4CCN(c5ccnc6cc(Cl)ccc56)CC4)CC3)ccnc2c1", "note": "[PPQ, piperaquine]", "values": [
      {"measurement": "PfCRTDd2_F145I-mediated PPQ transport", "setting": "500 µM PPQ, 400 µM CQ", "value": "83.51 pmol oocyte-1 h-1 and 92.59 pmol oocyte-1 h-1"},
      {"measurement": "v / (Vmax - v)", "setting": "1/[PPQ] 0.002000 µM-1", "value": 0.4488},
      {"measurement": "v / (Vmax - v)", "setting": "1/[PPQ] 0.002857 µM-1", "value": 0.4948},
      {"measurement": "v / (Vmax - v)", "setting": "1/[PPQ] 0.005000 µM-1", "value": 0.5591},
      {"measurement": "v / (Vmax - v)", "setting": "1/[PPQ] 0.008000 µM-1", "value": 0.7269},
      {"measurement": "v / (Vmax - v)", "setting": "1/[PPQ] 0.020000 µM-1", "value": 0.8760},
      {"measurement": "most plausible inhibition model", "setting": "16 models, ΔAICC, Akaike weight, secondary plots", "value": "partial noncompetitive inhibition"},
      {"measurement": "Vmax, maximal velocity of drug transport", "setting": "Mixed (Partial) model, drug as radiolabeled substrate", "value": "150 ± 5", "unit": "pmol oocyte^-1 h^-1"},
      {"measurement": "Kd", "setting": "Mixed (Partial) model, drug as cold inhibitor, read-out: KS, dissociation constant for the PfCRT-substrate complex", "value": "160 ± 40", "unit": "µM"},
      {"measurement": "Kd", "setting": "Mixed (Partial) model, drug as radiolabeled substrate, read-out: KS, dissociation constant for the PfCRT-substrate complex", "value": "128 ± 11", "unit": "µM"},
      {"measurement": "β, partiality factor", "setting": "Mixed (Partial) model", "value": "0.64 ± 0.09"},
      {"measurement": "α, KS interaction factor", "setting": "Mixed (Partial) model, label = radiolabeled substrate, other drug cold inhibitor", "value": "1.2 ± 0.3"},
      {"measurement": "Vmax, maximal velocity of drug transport", "setting": "Noncompetitive (Partial) model, drug as radiolabeled substrate, other drug as cold inhibitor", "value": "152 pmol oocyte^-1 h^-1 and 152 ± 4 pmol oocyte^-1 h^-1"},
      {"measurement": "Kd", "setting": "Noncompetitive (Partial) model, drug as cold inhibitor, read-out: KS, dissociation constant for the PfCRT-substrate complex", "value": "167 µM and 170 µM"},
      {"measurement": "Kd", "setting": "Noncompetitive (Partial) model, drug as radiolabeled substrate, read-out: KS, dissociation constant for the PfCRT-substrate complex", "value": "134 ± 8", "unit": "µM"},
      {"measurement": "β, partiality factor", "setting": "Noncompetitive (Partial) model", "value": "0.61 and 0.61 ± 0.07"},
      {"measurement": "KMapp ([3H]PPQ + CQ)", "setting": "[CQ] 0 µM", "value": 124.39, "unit": "µM"},
      {"measurement": "Vmaxapp ([3H]PPQ + CQ)", "setting": "[CQ] 0 µM", "value": 148.37, "unit": "pmol oocyte-1 h-1"},
      {"measurement": "Vmaxapp/KMapp ([3H]PPQ + CQ)", "setting": "[CQ] 0 µM", "value": 1.1929, "unit": "h⁻¹"},
      {"measurement": "KMapp ([3H]PPQ + CQ)", "setting": "[CQ] 25 µM", "value": 139.84, "unit": "µM"},
      {"measurement": "Vmaxapp ([3H]PPQ + CQ)", "setting": "[CQ] 25 µM", "value": 149.64, "unit": "pmol oocyte-1 h-1"},
      {"measurement": "Vmaxapp/KMapp ([3H]PPQ + CQ)", "setting": "[CQ] 25 µM", "value": 1.0701, "unit": "h⁻¹"},
      {"measurement": "KMapp ([3H]PPQ + CQ)", "setting": "[CQ] 50 µM", "value": 130.94, "unit": "µM"},
      {"measurement": "Vmaxapp ([3H]PPQ + CQ)", "setting": "[CQ] 50 µM", "value": 139.65, "unit": "pmol oocyte-1 h-1"},
      {"measurement": "Vmaxapp/KMapp ([3H]PPQ + CQ)", "setting": "[CQ] 50 µM", "value": 1.0665, "unit": "h⁻¹"},
      {"measurement": "KMapp ([3H]PPQ + CQ)", "setting": "[CQ] 125 µM", "value": 131.31, "unit": "µM"},
      {"measurement": "Vmaxapp ([3H]PPQ + CQ)", "setting": "[CQ] 125 µM", "value": 130.07, "unit": "pmol oocyte-1 h-1"},
      {"measurement": "Vmaxapp/KMapp ([3H]PPQ + CQ)", "setting": "[CQ] 125 µM", "value": 0.9905, "unit": "h⁻¹"},
      {"measurement": "KMapp ([3H]PPQ + CQ)", "setting": "[CQ] 200 µM", "value": 138.10, "unit": "µM"},
      {"measurement": "Vmaxapp ([3H]PPQ + CQ)", "setting": "[CQ] 200 µM", "value": 125.38, "unit": "pmol oocyte-1 h-1"},
      {"measurement": "Vmaxapp/KMapp ([3H]PPQ + CQ)", "setting": "[CQ] 200 µM", "value": 0.9079, "unit": "h⁻¹"},
      {"measurement": "KMapp ([3H]PPQ + CQ)", "setting": "[CQ] 400 µM", "value": 147.48, "unit": "µM"},
      {"measurement": "Vmaxapp ([3H]PPQ + CQ)", "setting": "[CQ] 400 µM", "value": 117.65, "unit": "pmol oocyte-1 h-1"},
      {"measurement": "Vmaxapp/KMapp ([3H]PPQ + CQ)", "setting": "[CQ] 400 µM", "value": 0.7978, "unit": "h⁻¹"},
      {"measurement": "Kd", "setting": "secondary plot, half-maximal inhibitory concentration of Vmax,app versus inhibitor concentration, read-out: αKS, dissociation constant between the drug and the PfCRT complex with the other drug", "value": "170 ± 30", "unit": "µM"},
      {"measurement": "Kd", "setting": "secondary plot, half-maximal inhibitory concentration of Vmax,app/KM,app versus inhibitor concentration, read-out: KS, dissociation constant between the drug and PfCRT", "value": "170 ± 50", "unit": "µM"},
      {"measurement": "α (αKS divided by KS)", "setting": "secondary plots, label = prebound drug", "value": "0.8 ± 0.7"}
    ]}
  ]
}
